Data published in ChEMBL document CHEMBL4715769, “Discovery of a novel chimeric ubenimex-gemcitabine with potent oral antitumor activity” (Bioorg Med Chem, 2016).
The source made the active and inactive calls. No cut-off for these calls is given here.

Columns and labels:
MDA-MB-231 = experiment: Antiproliferative activity against human MDA-MB-231 cells after 48 hrs by MTT assay; conditions: MDA-MB-231, 48 h
HepG2 = conditions: Homo sapiens, dose 25.0 mg/kg
Description: Antitumor activity against human HepG2 cells xenografted in BALB/c nude mouse assessed as inhibition of tumor growth at 25 mg/kg, po

L02 = experiment: Antiproliferative activity against human HL7702 cells after 48 hrs by MTT assay; conditions: L02, 48 h
HUVEC = experiment: Antiangiogenic activity in HUVEC assessed as inhibition of capillary like tubular formation at 30 uM after 8 hrs by matrigel based tube formation assay; assay type: functional; conditions: Homo sapiens
U-266 = experiment: Antiproliferative activity against human U266 cells after 48 hrs by MTT assay; conditions: U-266, 48 h
HeLa = experiment: cells; conditions: Homo sapiens, 48 h
PLC-PRF-5 [1] = experiment: Antitumor activity against human PLC-PRF-5 cells xenografted in BALB/c nude mouse assessed as inhibition of tumor growth by measuring T/C ratio at 25 mg/kg, po; assay type: functional
Aorta = experiment: Antiangiogenic activity in Wistar rat thoracic aortic rings assessed as decrease in number of microvessels sprouting at 20 ug/ml treated every other day for 9 days; assay type: functional, tissue-based; conditions: dose 20.0 µg/ml, time 9.0 day
[2] = Antiproliferative activity against human ES2 cells after 48 hrs by MTT assay; conditions: ES-2, 48 h
PLC-PRF-5 [3] = experiment: Induction of apoptosis in human PLC-PRF-5 cells assessed as late apoptotic cells at 2 uM after 48 hrs by Annexin V-FITC/propidium iodide staining-based flow cytometric analysis (reference value: 8.7 %); assay type: functional
PC-3 = experiment: cells; conditions: Homo sapiens, PC-3, 48 h
Description: Antiproliferative activity against human PC-3 cells after 48 hrs by MTT assay

U-937 = experiment: cells; conditions: Homo sapiens, U-937, 48 h
Description: Antiproliferative activity against human U937 cells after 48 hrs by MTT assay

HEL = experiment: cells; conditions: Homo sapiens, 48 h
Description: Antiproliferative activity against human HEL cells after 48 hrs by MTT assay

[4] = Prodrug conversion in human plasma assessed as release of active metabolites GEM and Ube measured within 120 mins at 37 degC by HPLC analysis; assay type: ADME, cell-free; conditions: 2 h
[5] = Antiproliferative activity against human 3AO cells after 48 hrs by MTT assay
H22 [6] = experiment: Antitumor activity against mouse H22 cells transplanted in Kunming mouse assessed as tumor growth inhibition at 25 mg/kg, po administered every 4 days for 4 doses; assay type: functional, organism-based; conditions: time 4.0 day
Aminopeptidase N = biological target: T1, Aminopeptidase N (Sus scrofa, UniProt P15145); experiment: Inhibition of porcine kidney microsomal CD13 using L-leucine-p-nitroanilide as substrate preincubated for 5 mins followed by substrate addition and measured after 30 mins by microplate reader analysis; assay type: microsomes, Microsome
T1 sequence (P15145 whole entry): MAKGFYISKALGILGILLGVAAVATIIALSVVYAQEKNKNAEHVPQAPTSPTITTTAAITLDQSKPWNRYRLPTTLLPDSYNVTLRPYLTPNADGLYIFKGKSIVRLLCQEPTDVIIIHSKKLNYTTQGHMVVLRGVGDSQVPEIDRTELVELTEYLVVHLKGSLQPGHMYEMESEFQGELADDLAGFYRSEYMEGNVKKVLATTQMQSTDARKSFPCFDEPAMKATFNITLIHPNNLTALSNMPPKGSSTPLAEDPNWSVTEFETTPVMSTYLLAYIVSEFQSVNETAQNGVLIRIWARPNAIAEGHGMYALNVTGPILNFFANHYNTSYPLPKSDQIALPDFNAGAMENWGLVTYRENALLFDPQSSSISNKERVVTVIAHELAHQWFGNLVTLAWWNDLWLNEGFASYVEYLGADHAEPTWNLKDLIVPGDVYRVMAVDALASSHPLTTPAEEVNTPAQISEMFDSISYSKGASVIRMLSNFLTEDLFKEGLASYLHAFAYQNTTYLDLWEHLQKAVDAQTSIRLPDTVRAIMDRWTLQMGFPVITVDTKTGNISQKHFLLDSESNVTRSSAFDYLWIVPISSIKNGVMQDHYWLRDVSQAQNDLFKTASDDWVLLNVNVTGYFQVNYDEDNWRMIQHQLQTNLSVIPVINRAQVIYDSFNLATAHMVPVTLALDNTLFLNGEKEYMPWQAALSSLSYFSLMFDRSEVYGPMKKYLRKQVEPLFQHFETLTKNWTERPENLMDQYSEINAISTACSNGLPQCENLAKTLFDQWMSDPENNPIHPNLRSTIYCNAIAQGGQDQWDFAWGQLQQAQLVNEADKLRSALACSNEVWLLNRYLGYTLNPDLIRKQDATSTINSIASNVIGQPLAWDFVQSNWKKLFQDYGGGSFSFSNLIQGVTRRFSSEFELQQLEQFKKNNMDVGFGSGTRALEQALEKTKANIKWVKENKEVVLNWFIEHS

PLC-PRF-5 [7] = experiment: Inhibition of colony formation in human PLC-PRF-5 cells assessed as reduction in number of colonies at 0.2 uM after 2 weeks by Giemsa staining based inverted microscopic analysis; assay type: functional, cell-based
K562 = experiment: cells; conditions: Homo sapiens, K562, 48 h
KG-1 = experiment: Antiproliferative activity against human KG1 cells after 48 hrs by MTT assay; conditions: KG-1, 48 h
A549 = experiment: cells; conditions: Homo sapiens, A549, 48 h
PLC-PRF-5 [8] = experiment: Antiproliferative activity against human PLC-PRF-5 cells after 48 hrs by MTT assay; conditions: PLC-PRF-5, 48 h
PLC-PRF-5 [9] = experiment: Induction of apoptosis in human PLC-PRF-5 cells assessed as necrotic cells at 2 uM after 48 hrs by Annexin V-FITC/propidium iodide staining-based flow cytometric analysis (reference value: 6.1 %); assay type: functional
H22 [10] = experiment: Antitumor activity against mouse H22 cells transplanted in Kunming mouse assessed as tumor growth inhibition at 25 mg/kg, ip administered every 4 days for 4 doses; assay type: functional, organism-based; conditions: time 4.0 day
PLC-PRF-5 [11] = experiment: Antitumor activity against human PLC-PRF-5 cells xenografted in BALB/c nude mouse assessed as inhibition of tumor growth by measuring T/C ratio at 25 mg/kg, ip; assay type: functional

Row | IC50 (MDA-MB-231) [nM] | IC50 (HeLa) [nM] | IC50 (PC-3) [nM] | IC50 (U-937) [nM] | IC50 (HEL) [nM] | IC50 (K562) [nM] | IC50 (A549) [nM] | Structure (SMILES) | IC50 (L02) [nM] | IC50 (U-266) [nM] | IC50 [2] [nM] | Activity (PLC-PRF-5 [3]) [%] | IC50 [5] [nM] | IC50 (KG-1) [nM] | IC50 (PLC-PRF-5 [8]) [nM] | Activity (PLC-PRF-5 [9]) [%] | also measured
1 | 1560 | 5480 | 260 | 80 | 610 | 130 | 660 | CC(C)C[C@H](NC(=O)[C@@H](O)[C@H](N)Cc1ccccc1)C(=O)Nc1ccn([C@@H]2O[C@H](CO)[C@@H](O)C2(F)F)c(=O)n1.Cl | 22100 | 260 | 280 | 18.4 | 9730 | 820 | 1410 | 10.7 | inhibition (HepG2): Active; inhibition at 30 µM (HUVEC): 100%; T/C (PLC-PRF-5 [1]): 51%; Activity (Aorta): Active; Drug metabolism [4]: Metabolite_Detected; growth inhibition (GI) (H22 [6]): Active; IC50 (Aminopeptidase N): 8750 nM; Activity (PLC-PRF-5 [7]): Active
2 | 1670 | 2740 | 220 | 70 | 480 | 110 | 260 | Nc1ccn([C@@H]2O[C@H](CO)[C@@H](O)C2(F)F)c(=O)n1 [GEMCITABINE] | 5430 | 220 | 530 | 18 | 5730 | 860 | 1530 | 25 | growth inhibition (GI) (H22 [10]): Active; T/C (PLC-PRF-5 [11]): 54%
3 | > 500000 | > 500000 | – | – | > 500000 | – | – | CC(C)C[C@H](NC(=O)[C@@H](O)[C@H](N)Cc1ccccc1)C(=O)O [UBENIMEX] | – | > 500000 | > 500000 | 11 | > 500000 | > 500000 | > 500000 | 7.1 | –
